Patent US3960877A, “N-monosubstituted-2,3-pyridinedicarboxamides, and related compounds” (priority 1974, dated 1976)

Experiments:
Format in all cases: in vivo
Lambsquarters [1] = experiment: Preemergence herbicidal activity, % control of plant growth; conditions: Chenopodium album, pre-emergence, 504 h, 16 lb/acre, about 3 weeks
Excerpt: (§1) By "preemergence" is meant that the compound is applied to the soil prior to emergence of the weed species sought to be controlled. This term, as used herein, also means the application of the herbicidal compounds falling within the scope of this disclosure to areas wherein useful or desirable plants are either growing or have been sown, but where the undesirable plants sought to be controlled have not as yet emerged.
(§2) In using the compound, seeds of the types of plants set forth in Table II were sown in fresh soil. In the preemergence test the soil was sprayed with a solution of the test compound immediately after the seeds were planted, and before any noticeable growth developed. The solution was about a 2 percent by weight solution of the compound in acetone and/or alcohol. The compound was applied at the rate of 16 pounds per acre of soil surface.
(§3) Approximately 3 weeks after spray application, the herbicidal activity of the compound was determined by visual observation of the treated area in comparison with untreated control areas. These observations are reported below in Table II wherein the average activity rating is reported as the percent control of plant growth.
(§4) *Preemergence test: compound applied at rate of 16 lb/acre

Foxtail [2] = experiment: as above; conditions: Setaria, pre-emergence, 504 h, 16 lb/acre, about 3 weeks
Excerpt: as §1, §2, §3, §4

Yellow Rocket [3] = experiment: as above; conditions: pre-emergence, 504 h, 16 lb/acre, about 3 weeks
Excerpt: as §1, §2, §3, §4

Alfalfa [4] = experiment: as above; conditions: Medicago sativa, pre-emergence, 504 h, 16 lb/acre, about 3 weeks
Excerpt: as §1, §2, §3, §4

Cucumber [5] = experiment: as above; conditions: Cucumis sativus, pre-emergence, 504 h, 16 lb/acre, about 3 weeks
Excerpt: as §1, §2, §3, §4

Snapbeans [6] = experiment: as above; conditions: pre-emergence, 504 h, 16 lb/acre, about 3 weeks
Excerpt: as §1, §2, §3, §4

Velvetleaf [7] = experiment: as above; conditions: Abutilon theophrasti, pre-emergence, 504 h, 16 lb/acre, about 3 weeks
Excerpt: as §1, §2, §3, §4

Barnyard Grass [8] = experiment: as above; conditions: Echinochloa crus-galli, pre-emergence, 504 h; barnyard grass; 16 lb/acre; about 3 weeks
Excerpt: as §1, §2, §3, §4

Corn [9] = experiment: as above; conditions: Zea mays, pre-emergence, 504 h, 16 lb/acre, about 3 weeks
Excerpt: as §1, §2, §3, §4

Crabgrass [10] = experiment: as above; conditions: Digitaria sanguinalis, pre-emergence, 504 h, 16 lb/acre, about 3 weeks
Excerpt: as §1, §2, §3, §4

Curled Dock [11] = experiment: as above; conditions: pre-emergence, 504 h, 16 lb/acre, about 3 weeks
Excerpt: as §1, §2, §3, §4

Chickweed [12] = experiment: as above; conditions: pre-emergence, 504 h, 16 lb/acre, about 3 weeks
Excerpt: as §1, §2, §3, §4

Pigweed [13] = experiment: as above; conditions: Amaranthus retroflexus, pre-emergence, 504 h, 16 lb/acre, about 3 weeks
Excerpt: as §1, §2, §3, §4

Cheatgrass [14] = experiment: as above; conditions: Bromus tectorum, pre-emergence, 504 h, 16 lb/acre, about 3 weeks
Excerpt: as §1, §2, §3, §4

Johnsongrass [15] = experiment: as above; conditions: Sorghum halepense, pre-emergence, 504 h, 16 lb/acre, about 3 weeks
Excerpt: as §1, §2, §3, §4

Nutgrass [16] = experiment: as above; conditions: pre-emergence, 504 h, 16 lb/acre, about 3 weeks
Excerpt: as §1, §2, §3, §4

Wild Oats [17] = experiment: as above; conditions: Avena fatua, pre-emergence, 504 h, 16 lb/acre, about 3 weeks
Excerpt: as §1, §2, §3, §4

Lambsquarters [18] = experiment: Postemergence herbicidal activity, % control of plant growth; conditions: Chenopodium album, post-emergence, 264 h, 8 lb/acre, about 11 days
Excerpt: (§5) By the term "postemergence" is meant that the compound is applied to the plant sought to be controlled after it has emerged from the soil surface. This term is also used to describe the application of herbicidally active compounds to soil surface in and around growing plants sought to be controlled for purposes of effecting root absorption by the undesirable plant species.
(§6) In the postemergence test the soil and developing plants were sprayed approximately 2 weeks after the seeds were sown. The compound was applied at the rate of 8 pounds per acre from about a 2 percent by weight solution of the test compound in acetone and/or alcohol. The postemergence herbicidal activity was measured in the same way as the preemergence activity; i.e. visual observation approximately 11 days after spraying, and expressed as the percent control of plant growth.
(§7) **Postemergence test: compound applied at rate of 8 lb/acre

Foxtail [19] = experiment: as above; conditions: Setaria, post-emergence, 264 h, 8 lb/acre, about 11 days
Excerpt: as §5, §6, §7

Yellow Rocket [20] = experiment: as above; conditions: post-emergence, 264 h, 8 lb/acre, about 11 days
Excerpt: as §5, §6, §7

Alfalfa [21] = experiment: as above; conditions: Medicago sativa, post-emergence, 264 h, 8 lb/acre, about 11 days
Excerpt: as §5, §6, §7

Cucumber [22] = experiment: as above; conditions: Cucumis sativus, post-emergence, 264 h, 8 lb/acre, about 11 days
Excerpt: as §5, §6, §7

Snapbeans [23] = experiment: as above; conditions: post-emergence, 264 h, 8 lb/acre, about 11 days
Excerpt: as §5, §6, §7

Velvetleaf [24] = experiment: as above; conditions: Abutilon theophrasti, post-emergence, 264 h, 8 lb/acre, about 11 days
Excerpt: as §5, §6, §7

Barnyard Grass [25] = experiment: as above; conditions: Echinochloa crus-galli, post-emergence, 264 h, 8 lb/acre, about 11 days
Excerpt: as §5, §6, §7

Corn [26] = experiment: as above; conditions: Zea mays, post-emergence, 264 h, 8 lb/acre, about 11 days
Excerpt: as §5, §6, §7

Crabgrass [27] = experiment: as above; conditions: Digitaria sanguinalis, post-emergence, 264 h, 8 lb/acre, about 11 days
Excerpt: as §5, §6, §7

Curled Dock [28] = experiment: as above; conditions: post-emergence, 264 h, 8 lb/acre, about 11 days
Excerpt: as §5, §6, §7

Chickweed [29] = experiment: as above; conditions: post-emergence, 264 h, 8 lb/acre, about 11 days
Excerpt: as §5, §6, §7

Pigweed [30] = experiment: as above; conditions: Amaranthus retroflexus, post-emergence, 264 h, 8 lb/acre, about 11 days
Excerpt: as §5, §6, §7

Cheatgrass [31] = experiment: as above; conditions: Bromus tectorum, post-emergence, 264 h, 8 lb/acre, about 11 days
Excerpt: as §5, §6, §7

Johnsongrass [32] = experiment: as above; conditions: Sorghum halepense, post-emergence, 264 h, 8 lb/acre, about 11 days
Excerpt: as §5, §6, §7

Nutgrass [33] = experiment: as above; conditions: post-emergence, 264 h, 8 lb/acre, about 11 days
Excerpt: as §5, §6, §7

Wild Oats [34] = experiment: as above; conditions: Avena fatua, post-emergence, 264 h, 8 lb/acre, about 11 days
Excerpt: as §5, §6, §7

Row | Structure (SMILES) | pest or weed control at 17933.6 g/ha (Lambsquarters [1]) [%] | pest or weed control at 17933.6 g/ha (Foxtail [2]) [%] | pest or weed control at 17933.6 g/ha (Yellow Rocket [3]) [%] | pest or weed control at 17933.6 g/ha (Alfalfa [4]) [%] | pest or weed control at 17933.6 g/ha (Cucumber [5]) [%] | pest or weed control at 17933.6 g/ha (Snapbeans [6]) [%] | pest or weed control at 17933.6 g/ha (Velvetleaf [7]) [%] | pest or weed control at 17933.6 g/ha (Barnyard Grass [8]) [%] | plant injury at 17933.6 g/ha (Corn [9]) [%] | pest or weed control at 17933.6 g/ha (Crabgrass [10]) [%] | pest or weed control at 17933.6 g/ha (Curled Dock [11]) [%] | pest or weed control at 17933.6 g/ha (Chickweed [12]) [%] | pest or weed control at 17933.6 g/ha (Pigweed [13]) [%] | pest or weed control at 17933.6 g/ha (Cheatgrass [14]) [%] | pest or weed control at 17933.6 g/ha (Johnsongrass [15]) [%] | pest or weed control at 17933.6 g/ha (Nutgrass [16]) [%] | pest or weed control at 17933.6 g/ha (Wild Oats [17]) [%] | pest or weed control at 8966.8 g/ha (Lambsquarters [18]) [%] | pest or weed control at 8966.8 g/ha (Foxtail [19]) [%] | pest or weed control at 8966.8 g/ha (Yellow Rocket [20]) [%] | also measured
1 | O=c1[nH]c(=O)c2ncccc2[nH]1 [pyrido[3,2-d]pyrimidine-2,4(1H,3H)-dione, reference compound] | 0 | 0 | 0 | 0 | 0 | 0 | 0 | 0 | 0 | 0 | 0 | 0 | 0 | 0 | 0 | 0 | 0 | 0 | 0 | 0 | pest or weed control at 8966.8 g/ha (Alfalfa [21]): 0%; pest or weed control at 8966.8 g/ha (Cucumber [22]): 0%; pest or weed control at 8966.8 g/ha (Snapbeans [23]): 0%; pest or weed control at 8966.8 g/ha (Velvetleaf [24]): 0%; pest or weed control at 8966.8 g/ha (Barnyard Grass [25]): 0%; plant injury at 8966.8 g/ha (Corn [26]): 0%; pest or weed control at 8966.8 g/ha (Crabgrass [27]): 0%; pest or weed control at 8966.8 g/ha (Curled Dock [28]): 0%; pest or weed control at 8966.8 g/ha (Chickweed [29]): 0%; pest or weed control at 8966.8 g/ha (Pigweed [30]): 0%; pest or weed control at 8966.8 g/ha (Cheatgrass [31]): 0%; pest or weed control at 8966.8 g/ha (Johnsongrass [32]): 0%; pest or weed control at 8966.8 g/ha (Nutgrass [33]): 0%; pest or weed control at 8966.8 g/ha (Wild Oats [34]): 0%
2 | O=c1[nH]c2nccnc2c(=O)n1C1CCCCC1 [Lumazine, 3-cyclohexyl] | 100 | 20 | 100 | 100 | 100 | 100 | 100 | 20 | 40 | 80 | 90 | 100 | 100 | 10 | 30 | 100 | 20 | 100 | 10 | 100 | pest or weed control at 8966.8 g/ha (Alfalfa [21]): 100%; pest or weed control at 8966.8 g/ha (Cucumber [22]): 100%; pest or weed control at 8966.8 g/ha (Snapbeans [23]): 100%; pest or weed control at 8966.8 g/ha (Velvetleaf [24]): 100%; pest or weed control at 8966.8 g/ha (Barnyard Grass [25]): 10%; plant injury at 8966.8 g/ha (Corn [26]): 10%; pest or weed control at 8966.8 g/ha (Crabgrass [27]): 20%; pest or weed control at 8966.8 g/ha (Curled Dock [28]): 100%; pest or weed control at 8966.8 g/ha (Chickweed [29]): 90%; pest or weed control at 8966.8 g/ha (Pigweed [30]): 90%; pest or weed control at 8966.8 g/ha (Cheatgrass [31]): 50%; pest or weed control at 8966.8 g/ha (Johnsongrass [32]): 20%; pest or weed control at 8966.8 g/ha (Nutgrass [33]): 100%; pest or weed control at 8966.8 g/ha (Wild Oats [34]): 10%
3 | CCCCn1c(=O)[nH]c2cccnc2c1=O [3-butyl-pyrido[3,2-d]pyrimidine-2,4(1H,3H)-dione] | 70 | 100 | 100 | 100 | 100 | 100 | 100 | 100 | 100 | 90 | 90 | 100 | 100 | 100 | 100 | 100 | 100 | 10 | 100 | 90 | pest or weed control at 8966.8 g/ha (Alfalfa [21]): 50%; pest or weed control at 8966.8 g/ha (Cucumber [22]): 100%; pest or weed control at 8966.8 g/ha (Snapbeans [23]): 100%; pest or weed control at 8966.8 g/ha (Velvetleaf [24]): 100%; pest or weed control at 8966.8 g/ha (Barnyard Grass [25]): 100%; plant injury at 8966.8 g/ha (Corn [26]): 50%; pest or weed control at 8966.8 g/ha (Crabgrass [27]): 100%; pest or weed control at 8966.8 g/ha (Curled Dock [28]): 100%; pest or weed control at 8966.8 g/ha (Chickweed [29]): 100%; pest or weed control at 8966.8 g/ha (Pigweed [30]): 90%; pest or weed control at 8966.8 g/ha (Cheatgrass [31]): 100%; pest or weed control at 8966.8 g/ha (Johnsongrass [32]): 100%; pest or weed control at 8966.8 g/ha (Nutgrass [33]): 90%; pest or weed control at 8966.8 g/ha (Wild Oats [34]): 100%
